Results taken from US10722501B2 (BAYER AKTIENGESELLSCHAFT, priority 2016, dated 2020).

What follows are compounds tested against T1, recombinant full-length human prolyl endopeptidase (PREP) (Homo sapiens, UniProt P48147) (assay: Biochemical human prolyl endopeptidase (PREP) assay with fluorescently labelled substrate). Details: substrate Z-Gly-Pro-AMC 50 μM, 32° C., 60 min; some as mean values from multiple independent determinations.
T1 construct: To recombinant full-length human prolyl endopeptidase (PREP, R&D-Systems, 4308-SE); purchased R&D-Systems 4308-SE
T1 sequence (P48147 1-710): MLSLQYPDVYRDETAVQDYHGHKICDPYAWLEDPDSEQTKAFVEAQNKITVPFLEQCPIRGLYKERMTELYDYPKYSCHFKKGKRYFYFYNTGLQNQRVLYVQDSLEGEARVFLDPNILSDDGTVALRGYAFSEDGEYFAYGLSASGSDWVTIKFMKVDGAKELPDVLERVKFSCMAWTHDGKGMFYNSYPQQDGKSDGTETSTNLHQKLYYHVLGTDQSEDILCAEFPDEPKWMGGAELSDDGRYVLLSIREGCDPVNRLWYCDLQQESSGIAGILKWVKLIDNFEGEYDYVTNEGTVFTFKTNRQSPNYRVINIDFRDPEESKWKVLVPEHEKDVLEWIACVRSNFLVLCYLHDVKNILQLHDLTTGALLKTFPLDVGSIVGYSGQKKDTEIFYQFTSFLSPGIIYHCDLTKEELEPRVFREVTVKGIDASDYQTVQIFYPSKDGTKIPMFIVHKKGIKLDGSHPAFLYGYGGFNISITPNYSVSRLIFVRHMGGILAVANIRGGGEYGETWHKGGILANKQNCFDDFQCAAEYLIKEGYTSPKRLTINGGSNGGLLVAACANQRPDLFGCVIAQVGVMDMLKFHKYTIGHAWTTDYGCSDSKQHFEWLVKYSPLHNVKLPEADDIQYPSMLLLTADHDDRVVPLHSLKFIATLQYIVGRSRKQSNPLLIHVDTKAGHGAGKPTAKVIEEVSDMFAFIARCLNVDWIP
Description: B-1 Biochemical Human Prolyl Endopeptidase (PREP) Assay for Identification of Inhibitors of PREP Activity Using a Fluorescently Labelled Substrate Principle of the Assay:
The enzymatic conversion of the fluorescent peptide substrate was observed on the basis of the measurement of the fluorescence intensity. The enzyme activity was determined by the ascertaining of the initial slope in the increase in fluorescence. Compounds that inhibit PREP were identified on the basis of the decrease in the initial slope compared to a reaction mixture without test compound.
Determination of Activity:
IC50 values were determined by the plotting of the percentage PREP activity against the concentration of the test substance by interpolation.
To recombinant full-length human prolyl endopeptidase (PREP, R&D-Systems, 4308-SE; final concentration, for example, 0.4 nM, volume: 25 μl) in reaction buffer (50 mM Tris-HCl, pH 7.5; 150 mM NaCl; 0.13% BSA, 5 mM EDTA, 3 mM GSH, 0.005% Brij-35) was added a test compound (in DMSO, in an appropriate final concentration range from 1 nM to 30 μM, volume: 1 μl) in a well of a 384-well microtitre plate. The reaction was initiated by adding the substrate Z-Gly-Pro-AMC (final concentration 50 μM; Z=carboxybenzyl; AMC=7-amino-4-methylcoumarin, volume: 25 μl). The progress of the PREP reaction was observed by measuring the fluorescence intensity in a Tecan SAFIRE II plate spectrophotometer at 32° C. over a period of 60 min (excitation wavelength: 360 nm, emission wavelength: 465 nm).
Table B-1 below collates the IC50 values thus obtained from the human prolyl endopeptidase assay for individual working examples of the invention (some as mean values from multiple independent individual determinations).

Compound | IC50
O=C(C1CCCc2nn(Cc3ccc(C(F)(F)F)nc3)c(=O)n21)N1CC[C@@H](F)C1 (mixture of isomers) [Example 100, (5RS)-5-{[(3R)-3-Fluoropyrrolidin-1-yl]carbonyl}-2-{[6-(trifluoromethyl)pyridin-3-yl]methyl}-5,6,7,8-tetrahydro[1,2,4]triazolo[4,3-a]pyridin-3(2H)-one] | 7.9 nM
O=C(C1CCCc2nn(Cc3ccc(F)c(C(F)(F)F)c3)c(=O)n21)N1CC[C@H](O)C1 (mixture of isomers) [Example 101, (5RS)-2-[4-Fluoro-3-(trifluoromethyl)benzyl]-5-{[(3S)-3-hydroxypyrrolidin-1-yl]carbonyl}-5,6,7,8-tetrahydro[1,2,4]triazolo[4,3-a]pyridin-3(2H)-one] | 3.05 nM
Cc1ccc(Cn2nc3n(c2=O)C(C(=O)N2CCC4(C2)CC4(F)F)CCC3)cc1 (mixture of isomers) [Example 128, (5S)-{[(3RS)-1,1-Difluoro-5-azaspiro[2.4]hept-5-yl]carbonyl}-2-(4-methylbenzyl)-5,6,7,8-tetrahydro[1,2,4]triazolo[4,3-a]pyridin-3(2H)-one] | 46 nM
Cc1ccc(Cn2nc3n(c2=O)C(C(=O)N2CCC(F)(CO)C2)CCC3)cc1 (mixture of isomers) [Example 147, (5S)-5-{[(3RS)-3-Fluoro-3-(hydroxymethyl)pyrrolidin-1-yl]carbonyl}-2-(4-methylbenzyl)-5,6,7,8-tetrahydro[1,2,4]triazolo[4,3-a]pyridin-3(2H)-one] | 70 nM
O=C(C1CCc2nn(Cc3ccc(Cl)nc3)c(=O)n21)N1CC[C@H](F)C1 (mixture of isomers) [Example 163, (5RS)-2-[(6-Chloropyridin-3-yl)methyl]-5-{[(3S)-3-fluoropyrrolidin-1-yl]carbonyl}-2,5,6,7-tetrahydro-3H-pyrrolo[2,1-c][1,2,4]triazol-3-one] | 2.8 nM
O=C(C1CCc2nn(Cc3ccc(C(F)(F)F)nc3)c(=O)n21)N1CC[C@H](F)C1 (mixture of isomers) [Example 164, (5RS)-5-{[(3S)-3-Fluoropyrrolidin-1-yl]carbonyl}-2-{[6-(trifluoromethyl)pyridin-3-yl]methyl}-2,5,6,7-tetrahydro-3H-pyrrolo[2,1-c][1,2,4]triazol-3-one] | 3.7 nM
O=C(C1CCc2nn(Cc3ccc(F)c(Cl)c3)c(=O)n21)N1CC[C@H](F)C1 (mixture of isomers) [Example 165, (5RS)-2-(3-Chloro-4-fluorobenzyl)-5-{[(3S)-3-fluoropyrrolidin-1-yl]carbonyl}-2,5,6,7-tetrahydro-3H-pyrrolo[2,1-c][1,2,4]triazol-3-one] | 0.89 nM
O=C(C1CCc2nn(Cc3ccnc(C(F)(F)F)c3F)c(=O)n21)N1CC[C@H](F)C1 (mixture of isomers) [Example 178, (5RS)-5-{[(3S)-3-Fluoropyrrolidin-1-yl]carbonyl}-2-{[3-fluoro-2-(trifluoromethyl)pyridin-4-yl]methyl}-2,5,6,7-tetrahydro-3H-pyrrolo[2,1-c][1,2,4]triazol-3-one] | 1.3 nM
O=C([C@@H]1CCC(O)c2nn(Cc3ccc(C(F)(F)F)nc3)c(=O)n21)N1CC[C@H](F)C1 (mixture of isomers) [Example 275, (5S,8RS)-5-{[(3S)-3-Fluoropyrrolidin-1-yl]carbonyl}-8-hydroxy-2-{[6-(trifluoromethyl)pyridin-3-yl]methyl}-5,6,7,8-tetrahydro[1,2,4]triazolo[4,3-a]pyridin-3(2H)-one] | 1.15 nM
O=C([C@@H]1CCC(O)c2nn(Cc3cncc(Cl)c3)c(=O)n21)N1CC[C@H](F)C1 (mixture of isomers) [Example 279, (5S,8RS)-2-[(5-Chloropyridin-3-yl)methyl]-5-{[(3S)-3-fluoropyrrolidin-1-yl]carbonyl}-8-hydroxy-5,6,7,8-tetrahydro[1,2,4]triazolo[4,3-a]pyridin-3(2H)-one] | 0.485 nM
Cc1cc(Cn2nc3n(c2=O)C(C(=O)N2CC[C@H](F)C2)CCC3)on1 (mixture of isomers) [Example 416, (5RS)-5-{[(3S)-3-Fluoropyrrolidin-1-yl]carbonyl}-2-[(3-methyl-1,2-oxazol-5-yl)methyl]-5,6,7,8-tetrahydro[1,2,4]triazolo[4,3-a]pyridin-3(2H)-one] | 3.4 nM
O=C([C@@H]1CCC(O)c2nn(Cc3ccc(Cl)cn3)c(=O)n21)N1CC[C@H](F)C1 (mixture of isomers) [Example 547, (5S,8RS)-2-[(5-Chloropyridin-2-yl)methyl]-5-{[(3S)-3-fluoropyrrolidin-1-yl]carbonyl}-8-hydroxy-5,6,7,8-tetrahydro[1,2,4]triazolo[4,3-a]pyridin-3(2H)-one] | 0.43 nM
O=C([C@@H]1CCC(O)c2nn(Cc3ncc(F)cc3F)c(=O)n21)N1CC[C@H](F)C1 (mixture of isomers) [Example 585, (5S,8SR)-2-[(3,5-Difluoropyridin-2-yl)methyl]-5-{[(3S)-3-fluoropyrrolidin-1-yl]carbonyl}-8-hydroxy-5,6,7,8-tetrahydro[1,2,4]triazolo[4,3-a]pyridin-3(2H)-one] | 0.43 nM
O=C(C1CCCc2nn(Cc3ccc(C(F)(F)F)cc3)c(=O)n21)N1CCCC1 (racemic) [Example 1, (5RS)-5-(Pyrrolidin-1-ylcarbonyl)-2-[4-(trifluoromethyl)benzyl]-5,6,7,8-tetrahydro[1,2,4]triazolo[4,3-a]pyridin-3(2H)-one] | 1.75 nM
CC(C)(C)c1ccc(Cn2nc3n(c2=O)C(C(=O)N2CCCC2)CCC3)cc1 (racemic) [Example 2, (5RS)-2-(4-tert-Butylbenzyl)-5-(pyrrolidin-1-ylcarbonyl)-5,6,7,8-tetrahydro[1,2,4]triazolo[4,3-a]pyridin-3(2H)-one] | 15.4 nM
CC(c1ccc(Cl)cc1)n1nc2n(c1=O)C(C(=O)N1CCCC1)CCC2 (racemic) [Example 3, (5RS)-2-[(1 RS)-1-(4-Chlorophenyl)ethyl]-5-(pyrrolidin-1-ylcarbonyl)-5,6,7,8-tetrahydro[1,2,4]triazolo[4,3-a]pyridin-3(2H)-one] | 6 nM
CS(=O)(=O)c1ccc(Cn2nc3n(c2=O)C(C(=O)N2CCCC2)CCC3)cc1 (racemic) [Example 6, (5RS)-2-[4-(Methylsulphonyl)benzyl]-5-(pyrrolidin-1-ylcarbonyl)-5,6,7,8-tetrahydro[1,2,4]triazolo[4,3-a]pyridin-3(2H)-one] | 120 nM
O=C(C1CCCc2nn(Cc3ccc(OC(F)F)cc3)c(=O)n21)N1CCCC1 (racemic) [Example 7, (5RS)-2-[4-(Difluoromethoxy)benzyl]-5-(pyrrolidin-1-ylcarbonyl)-5,6,7,8-tetrahydro[1,2,4]triazolo[4,3-a]pyridin-3(2H)-one] | 8 nM
Cc1cccc(Cn2nc3n(c2=O)C(C(=O)N2CCCC2)CCC3)c1 (racemic) [Example 8, (5RS)-2-(3-Methylbenzyl)-5-(pyrrolidin-1-ylcarbonyl)-5,6,7,8-tetrahydro[1,2,4]triazolo[4,3-a]pyridin-3(2H)-one] | 0.99 nM
Cc1noc(-c2ccc(Cn3nc4n(c3=O)C(C(=O)N3CCCC3)CCC4)cc2)n1 (racemic) [Example 9, (5RS)-2-[4-(3-Methyl-1,2,4-oxadiazol-5-yl)benzyl]-5-(pyrrolidin-1-ylcarbonyl)-5,6,7,8-tetrahydro[1,2,4]triazolo[4,3-a]pyridin-3(2H)-one] | 39 nM
Cc1nc(-c2ccc(Cn3nc4n(c3=O)C(C(=O)N3CCCC3)CCC4)cc2)no1 (racemic) [Example 10, (5RS)-2-[4-(5-Methyl-1,2,4-oxadiazol-3-yl)benzyl]-5-(pyrrolidin-1-ylcarbonyl)-5,6,7,8-tetrahydro[1,2,4]triazolo[4,3-a]pyridin-3(2H)-one] | 24 nM
O=C(C1CCCc2nn(Cc3ccc4c(c3)CCC4)c(=O)n21)N1CCCC1 (racemic) [Example 11, (5RS)-2-(2,3-Dihydro-1H-inden-5-ylmethyl)-5-(pyrrolidin-1-ylcarbonyl)-5,6,7,8-tetrahydro[1,2,4]triazolo[4,3-a]pyridin-3(2H)-one] | 0.7 nM
